One may read the EC50 as the midpoint of the concentration-response curve. As usually defined, the EC90 is the concentration needed for an effect of 90%.

“And” between values parts separate entries of the source, which are not always exact repeats. Equal values may be shown once. Read-outs that look alike come from different tables or passages of the source.

This is an account of results in PMC9870775, “Potent Dual Polymerase/Exonuclease Inhibitory Activities of Antioxidant Aminothiadiazoles Against the COVID-19 Omicron Virus: A Promising In Silico/In Vitro Repositioning Research Study” (Molecular Biotechnology, 2023).

In the assay the test system is SARS-CoV-2 (Omicron variant, B.1.1.529.1/BA.1 sublineage). The assay can be described thus: microbe, parasite or virus in culture. The format is cell-based. To be noted: for EC50 / EC90: Severe acute respiratory syndrome coronavirus 2, Vero C1008, 48 h; for EC90: read-out: 90% Reduction in Infectious Virus (EC90).
The mark [1] stands for this setting: read-out: 50% Reduction in Infectious Virus (EC50).
[2] abbreviates: read-out: 50% Reduction in Viral RNA Copy (EC50).
[3] abbreviates: after starting administration and treatment.

Take `Nc1nnc(-c2cnc3cc(Cl)ccc3c2O)s1` [ChloViD2022, 3-(5-amino-1,3,4-thiadiazol-2-yl)-7-chloroquinolin-4-ol]: the “100% CPE Inhibitory Concentration (CPEIC100)” value is 1.09 µM and 1.09 ± 0.04 µM; the EC90 came to 1.53 ± 0.05 µM. The EC50 under setting [1] came out at 0.41 ± 0.02 µM. Moreover, the EC50 under setting [2] came to 0.44 ± 0.02 µM. Further, the “Time to maximal effectiveness against the Omicron-variant particles” value (from here on “Time to maximal effectiveness”) under setting [3] was in the range of 4 to 10 h.

In the case of `Nc1nnc(CC(O)(Cc2nnc(N)s2)c2nnc(N)s2)s1` [CoViTris2022, 1,2,3-tris(5-amino-1,3,4-thiadiazol-2-yl)propan-2-ol], the “100% CPE Inhibitory Concentration (CPEIC100)” value came out at 1.60 ± 0.06 µM, the “Time to maximal effectiveness” value was 4 to 10 h and the EC90 was 2.01 ± 0.07 µM. Also, the EC50 under setting [1] is 0.69 ± 0.03 µM. In addition, the EC50 under setting [2] amounted to 0.7 ± 0.04 µM.

With `CC(C)C(=O)OC[C@H]1O[C@@H](n2ccc(NO)nc2=O)[C@H](O)[C@@H]1O` [Molnupiravir, molnupiravir, reference compound], the “100% CPE Inhibitory Concentration (CPEIC100)” value was 6.25 µM and 6.25 ± 0.31 µM; the EC90 was 9.16 ± 0.37 µM.

Turning to `Nc1nnc([C@H](O)[C@@H](O)c2nnc(N)s2)s1` [Taroxaz-26, (1R,2R)-1,2-bis(5-amino-1,3,4-thiadiazol-2-yl)ethane-1,2-diol], the “100% CPE Inhibitory Concentration (CPEIC100)” value was 1.83 µM and 1.83 ± 0.07 µM; the EC90 came to 2.34 ± 0.08 µM. Further, the concentration giving a half-maximal response (EC50) under setting [1] was 0.73 ± 0.03 µM. Also, the EC50 under setting [2] was found to be 0.77 ± 0.04 µM. Also, the “Time to maximal effectiveness” value under setting [3] was 4 to 10 h.
